Test results reported in US20170362228A1, “TETRAHYDRO-PYRIDO[3,4-b]INDOLE ESTROGEN RECEPTOR MODULATORS AND USES THEREOF” (Genentech, Inc., priority 2016, published 2017).
Like-named read-outs stand apart in the source and are kept apart here.

Legend:
[1] = target: T1, estrogen receptor alpha (ESR1) (Homo sapiens, UniProt P03372); assay: Breast Cancer Cell ERa High Content Fluorescence Imaging Degradation Assay (Example 901); format: cell-based; details: Table 1a; MCF7 breast cancer cells, 4 hours; plateau of the maximal effect; DMSO and Fulvestrant define 0% and 100% changes in ESR1
T1 construct: endogenous in cells; host or cells: MCF7 breast cancer cells
T1 sequence (P03372 1-595): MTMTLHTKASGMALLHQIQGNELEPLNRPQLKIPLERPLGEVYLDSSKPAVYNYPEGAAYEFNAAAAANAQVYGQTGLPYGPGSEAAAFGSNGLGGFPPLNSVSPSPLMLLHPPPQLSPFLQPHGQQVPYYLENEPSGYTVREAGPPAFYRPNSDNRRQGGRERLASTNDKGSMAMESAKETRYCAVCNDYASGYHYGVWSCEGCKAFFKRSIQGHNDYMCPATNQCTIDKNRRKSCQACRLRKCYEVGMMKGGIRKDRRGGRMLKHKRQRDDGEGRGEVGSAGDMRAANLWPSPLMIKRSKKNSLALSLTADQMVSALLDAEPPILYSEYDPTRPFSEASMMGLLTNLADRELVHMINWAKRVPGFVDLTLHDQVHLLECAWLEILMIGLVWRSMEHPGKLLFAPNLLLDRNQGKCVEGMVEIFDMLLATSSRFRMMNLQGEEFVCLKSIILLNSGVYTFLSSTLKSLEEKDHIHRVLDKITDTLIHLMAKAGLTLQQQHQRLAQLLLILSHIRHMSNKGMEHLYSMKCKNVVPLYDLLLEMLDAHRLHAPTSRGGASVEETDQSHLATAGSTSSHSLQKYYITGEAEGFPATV
Description: MCF7 breast cancer cells were seeded on day 1 at a density of 10,000 cells per well in 384 well poly-lysine coated tissue culture plate (Greiner # T-3101-4), in 50 μL/well RPMI (phenol red free), 10% FBS (Charcoal stripped), containing L-glutamine. On day 2, compounds were prepared at 2 compound source concentrations: 100 μM and 1 μM (ultimately to give 2 overlapping titration curves), in a Labcyte low dead volume plate, 10 μL/well, and 10 μL of DMSO in designated wells for backfill, and 5 μM Fulvestrant (control compound) in designated wells. Compounds and controls were dispensed using a Labcyte Echo acoustic dispenser to dispense compounds with a predefined serial dilution (1.8×, 10 point, in duplicate) and appropriate backfill and control compounds (final total volume transferred was 417.5 nL and compound dispense volume ranges from 2.5 nL to 417.5 nL; 0.84% DMSO (v/v) final), ultimately producing a concentration range from 0.05 nM to 835 nM. Cell plates were incubated at 37° C., for 4 hours. Fixation and permeabilization were carried out using a Biotek EL406 plate washer and dispenser as follows. Cells were fixed by addition of 15 μL of 16% paraformaldehyde (Electron Microscopy Sciences #15710-S) directly to the 50 μL cell culture medium in each well using the peristaltic pump 5 μL cassette on a Biotek EL406 (final concentration of formaldehyde was 3.7% w/v). Samples were incubated 30 minutes. Well contents was aspirated and 50 μL/well of Phosphate Buffered Saline (PBS) containing 0.5% w/v bovine serum albumen, 0.5% v/v Triton X-100 (Antibody Dilution Buffer) was added to each well. Samples were incubated for 30 minutes. Well contents were aspirated and washed 3 times with 100 μL/well of PBS. Immunofluorescence staining of estrogen receptor alpha (ESR1) was carried out using a Biotek EL406 plate washer and dispenser as follows. The well supernatant was aspirated from the wells and 25 μL/well of anti-ESR1 mAb (F10) (Santa Cruz sc-8002) diluted 1:1000 in Antibody Dilution Buffer was dispensed. Samples were incubated for 2 hours at room temperature. Samples were washed 4 times with 100 μL/well of PBS. 25 uL/well of secondary antibody solution (Alexafluor 488 conjugate anti-mouse IgG (LifeTechnologies #A21202) diluted 1:1000 and Hoechst 33342 1 μg/ml diluted in Antibody Dilution Buffer) were dispensed into each well. Samples were incubated for 2 hours at room temperature. Samples were washed 3 times with 100 μL/well of PBS using a Biotek EL406. Quantitative fluorescence imaging of ESR1 was carried out using a Cellomics Arrayscan V (Thermo). Fluorescence images of the samples (Channel 1: XF53 Hoechst (DNA stain); Channel 2: XF53 FITC (ESR1 stain)) were acquired using a Cellomics VTI Arrayscan using the Bioapplication “Compartmental Analysis” using the auto-exposure (based on DMSO control wells) setting “peak target percentile” set to 25% target saturation for both channels. Channel 1 (DNA stain) was used to define the nuclear region (Circ). Measurements of “Mean_CircAvgIntCh2”, which is the Alexafluor 488 fluorescence intensity (ESR1) within the nuclear region, was measured on a per cell basis and averaged over all the measured cells. Data analysis was carried out using Genedata Screener Software, with DMSO and 5 nM Fulvestrant treated samples being used to define the 0% and 100% changes in ESR1. The “Robust Fit” method was used to define the inflexion point of curve (EC50) and the plateau of the maximal effect (Sinf). Degradation data for exemplary Formula I compounds is reported as ER-alpha MCF7 HCS Sinf(%) values in Table 1.

MCF7 cells = assay: In vitro cell proliferation assays (Examples 902 and 903), MCF7; format: cell-based; details: Homo sapiens
Description: Efficacy of estrogen receptor modulator compounds and chemotherapeutic compounds are measured by a cell proliferation assay employing the following protocol (Mendoza et al (2002) Cancer Res. 62:5485-5488).
The CellTiter-Glo® Luminescent Cell Viability Assay is a homogeneous method to determine the number of viable cells in culture based on quantitation of the ATP present, which signals the presence of metabolically active cells. The CellTiter-Glo® Assay is designed for use with multiwell plate formats, making it ideal for automated high-throughput screening (HTS), cell proliferation and cytotoxicity assays. The homogeneous assay procedure involves adding a single reagent (CellTiter-Glo® Reagent) directly to cells cultured in serum-supplemented medium. Cell washing, removal of medium or multiple pipetting steps are not required. The Cell Titer-Glo® Luminescent Cell Viability Assay, including reagents and protocol are commercially available (Promega Corp., Madison, Wis., Technical Bulletin TB288).
The assay assesses the ability of compounds to enter cells and inhibit cell proliferation. The assay principle is based on the determination of the number of viable cells present by quantitating the ATP present in a homogenous assay where addition of the Cell TiterGlo® reagent results in cell lysis and generation of a luminescent signal through the luciferase reaction. The luminescent signal is proportional to the amount of ATP present.
Procedure: Day 1—Seed Cell Plates (384-well black, clear bottom, microclear, TC plates with lid from Falcon #353962), Harvest cells, Seed cells at 1000 cells per 54 μl per well into 384 well Cell Plates for 3 days assay. Cell Culture Medium: RPMI or DMEM high glucose, 10% Fetal Bovine Serum, 2 mM L-Glutamine, P/S. Incubate 0/N (overnight) at 37° C., 5% CO2.
Day 2—Add Drug to Cells, Compound Dilution, DMSO Plates (serial 1:2 for 9 points). Add 20 μl of compound at 10 mM in the 2nd column of 96 well plate. Perform serial 1:2 across the plate (10 μl+20 μl 100% DMSO) for a total of 9 points using Precision Media Plates 96-well conical bottom polypropylene plates from Nunc (cat.#249946) (1:50 dilution). Add 147 μl of Media into all wells. Transfer 3 μl of DMSO+compound from each well in the DMSO Plate to each corresponding well on Media Plate using Rapidplate® (Caliper, a Perkin-Elmer Co.). For 2 drug combination studies, transfer one drug 1.5 μl of DMSO+compound from each well in the DMSO Plate to each corresponding well on Media Plate using Rapidplate. Then, transfer another drug 1.5 μl to the medium plate.
Drug Addition to Cells, Cell Plate (1:10 dilution): Add 6 μl of media+compound directly to cells (54 μl of media on the cells already). Incubate 3 days at 37° C., 5% CO2 in an incubator that will not be opened often.
Day 5—Develop Plates, Thaw Cell Titer Glo Buffer at room temperature: Remove Cell Plates from 37° C. and equilibrate to room temperature for about 30 minutes. Add Cell Titer-Glo® Buffer to Cell Titer-Glo® Substrate (bottle to bottle). Add 30 μl Cell Titer-Glo® Reagent (Promega cat.# G7572) to each well of cells. Place on plate shaker for about 30 minutes. Read luminescence on Analyst HT Plate Reader (half second per well).
Cell viability assays and combination assays: Cells were seeded at 1000-2000 cells/well in 384-well plates for 16 h. On day two, nine serial 1:2 compound dilutions were made in DMSO in a 96 well plate. The compounds were further diluted into growth media using a Rapidplate® robot (Zymark Corp., Hopkinton, Mass.). The diluted compounds were then added to quadruplicate wells in 384-well cell plates and incubated at 37° C. and 5% CO2. After 4 days, relative numbers of viable cells were measured by luminescence using Cell Titer-Glo® (Promega) according to the manufacturer's instructions and read on a Wallac Multilabel Reader® (PerkinElmer, Foster City). EC50 values were calculated using Prism® 4.0 software (GraphPad, San Diego). […]

[2] = MCF7, Table 1a, read-out: ER-alpha MCF7 HCS (EC50)
[3] = MCF7, Table 2, Comparator compounds, read-out: ER-alpha MCF7 HCS EC50

Structure (SMILES)	ER-alpha MCF7 HCS (S inf) [1]	EC50 (MCF7 cells; [2])	EC50 (MCF7 cells; [3])
C[C@@H]1Cc2c([nH]c3ccccc23)[C@@H](c2c(F)cc([C@@H](F)C3CN(CCCF)C3)cc2F)N1CC(F)(F)CO (single isomer, unassigned) [Compound 104]	−99.99%	0.017 nM	–
C[C@@H]1Cc2c([nH]c3ccccc23)[C@@H](c2c(F)cc([C@H](F)C3CN(CCCF)C3)cc2F)N1CC(F)(F)CO (single isomer, unassigned) [Compound 105]	−97.71%	0.021 nM	–
C[C@@H]1Cc2c([nH]c3ccc(F)cc23)[C@@H](c2c(F)cc([C@H](O)C3CN(CCCF)C3)cc2F)N1CC(F)(F)CO (single isomer, unassigned) [Compound 114]	−100.60%	0.035 nM	–
C[C@@H]1Cc2c([nH]c3ccc(F)cc23)[C@@H](c2c(F)cc([C@@H](O)C3CN(CCCF)C3)cc2F)N1CC(F)(F)CO (single isomer, unassigned) [Compound 115]	−100.58%	0.065 nM	–
C[C@@H]1Cc2c([nH]c3ccccc23)[C@@H](c2c(F)cc([C@H](O)C3CN(CCCF)C3)cc2F)N1CC(F)F (single isomer, unassigned) [Compound 121]	−98.21%	0.068 nM	–
C[C@@H]1Cc2c([nH]c3ccccc23)[C@@H](c2c(F)cc(NC3CN(CCCF)C3)cc2F)N1CC(F)(F)CO [Comparator compound A, 3-[(1R,3R)-1-[2,6-difluoro-4-[[1-(3-fluoropropyl)azetidin-3-yl]amino]phenyl]-3-methyl-1,3,4,9-tetrahydropyrido[3,4-b]indol-2-yl]-2,2-difluoro-propan-1-ol, reference compound]	–	–	0.027 nM
C[C@@H]1Cc2c([nH]c3ccccc23)[C@@H](c2ccc([C@@H](O)C3CN(CCCF)C3)cc2)N1CC(C)(C)F [Comparator compound B, (S)-(4-((1R,3R)-2-(2-fluoro-2-methylpropyl)-3-methyl-2,3,4,9-tetrahydro-1H-pyrido[3,4-b]indol-1-yl)phenyl)(1-(3-fluoropropyl)azetidin-3-yl)methanol, reference compound]	–	–	0.065 nM
C[C@@H]1Cc2c([nH]c3ccccc23)[C@@H](c2ccc([C@H](O)C3CN(CCCF)C3)cc2)N1CC(C)(C)F [Comparator compound C, (R)-(4-((1R,3R)-2-(2-fluoro-2-methylpropyl)-3-methyl-2,3,4,9-tetrahydro-1H-pyrido[3,4-b]indol-1-yl)phenyl)(1-(3-fluoropropyl)azetidin-3-yl)methanol, reference compound]	–	–	0.12 nM
C[C@@H]1Cc2c([nH]c3ccccc23)[C@@H](c2c(F)cc([C@@H](F)C3CN(CCCF)C3)cc2F)N1CC(C)(C)F [Compound 102, (1R,3R)-1-(2,6-difluoro-4-((S)-fluoro(1-(3-fluoropropyl)azetidin-3-yl)methyl)phenyl)-2-(2-fluoro-2-methylpropyl)-3-methyl-2,3,4,9-tetrahydro-1H-pyrido[3,4-b]indole]	–	0.137 nM	–

The remaining lines, values ahead:

ER-alpha MCF7 HCS (S inf) [1]	EC50 (MCF7 cells; [2])	EC50 (MCF7 cells; [3])	Structure (SMILES)
−98.05%	0.035 nM	–	C[C@@H]1Cc2c([nH]c3ccccc23)[C@@H](c2c(F)cc([C@@H](O)C3CN(CCCF)C3)cc2F)N1CC(F)F (single isomer, unassigned) [Compound 122]
−95.59%	7.64 nM	–	C[C@H]1Cc2c([nH]c3c(F)cccc23)[C@H](c2c(F)cc([C@H](O)C3CN(CCCF)C3)cc2F)N1CC(F)(F)CO (single isomer, unassigned) [Compound 131]
−91%	9.7 nM	–	C[C@H]1Cc2c([nH]c3c(F)cccc23)[C@H](c2c(F)cc([C@@H](O)C3CN(CCCF)C3)cc2F)N1CC(F)(F)CO (single isomer, unassigned) [Compound 132]
–	0.31 nM	–	C[C@@H]1Cc2c([nH]c3ccccc23)[C@@H](c2c(F)cc([C@@H](O)C3CN(CCCF)C3)cc2F)N1C[C@H](F)CO (single isomer, unassigned) [Compound 139]
